Structures can show the parent of a compound that is named as a salt.

Data set [1] addresses T1, Nox2 (Homo sapiens, UniProt P04839).
T1 construct: endogenous in cells
T1 sequence (P04839 2-570 limits assumed): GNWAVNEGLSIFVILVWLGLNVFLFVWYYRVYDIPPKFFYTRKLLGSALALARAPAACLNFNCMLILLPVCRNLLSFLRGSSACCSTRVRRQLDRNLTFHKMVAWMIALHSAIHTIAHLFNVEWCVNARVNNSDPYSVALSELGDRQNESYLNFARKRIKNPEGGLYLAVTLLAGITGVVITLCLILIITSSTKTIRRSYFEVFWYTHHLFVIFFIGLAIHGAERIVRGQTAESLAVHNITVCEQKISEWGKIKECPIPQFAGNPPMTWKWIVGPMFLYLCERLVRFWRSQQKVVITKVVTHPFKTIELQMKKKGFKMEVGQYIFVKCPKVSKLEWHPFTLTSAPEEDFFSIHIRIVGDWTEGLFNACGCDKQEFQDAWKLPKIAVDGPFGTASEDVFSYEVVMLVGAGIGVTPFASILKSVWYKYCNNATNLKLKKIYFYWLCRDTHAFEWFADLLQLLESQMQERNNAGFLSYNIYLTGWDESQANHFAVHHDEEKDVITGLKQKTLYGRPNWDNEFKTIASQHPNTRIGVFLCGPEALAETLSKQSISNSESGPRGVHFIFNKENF
T1 sequence (P13498 2-195 partner limits assumed): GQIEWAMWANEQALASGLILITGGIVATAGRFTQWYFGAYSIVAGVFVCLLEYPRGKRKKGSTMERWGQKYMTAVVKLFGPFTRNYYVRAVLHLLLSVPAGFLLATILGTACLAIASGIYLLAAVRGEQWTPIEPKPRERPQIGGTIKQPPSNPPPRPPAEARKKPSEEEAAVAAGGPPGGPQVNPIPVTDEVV
Kind of data set: CBA probe assay of H2O2 production by PMA-activated dHL60 cells. The class given is cell-based. The conditions noted are these: for IC50: PMA (1 µM)-activated dHL60 cells, 30 min preincubation with inhibitor, read-out: IC50, inhibition of H2O2 production, CBA Assay; for Nox2 inhibitory activity: tested at concentrations of up to 50 µM; for Nox2 inhibitory potency (SAR statement): replacement of the indole moiety, data not shown. How it is done:
(§1) Human promyelocytic leukemia HL60 cells (Sigma-Aldrich) were grown in RPMI 1640 medium (Gibco, 11875-093, Billings, MT, USA) supplemented with 10% FBS (Omega Scientific (Tarzana, CA, USA)), 100 units/mL penicillin, and 100 µg/mL streptomycin, and were incubated at 37 °C and 5% carbon dioxide (CO2). For differentiation to neutrophil-like cells, HL60 cells were pelleted and resuspended in fresh media containing 1 µM of all trans-retinoic acid and incubated for four to five days. Nox2 activation was achieved by treating differentiated HL60 (dHL60) cells with 1 µM PMA [24]. Human leukemia monocytic cells, THP-1, were grown in RPMI 1640 medium + GlutaMAX^TM (Gibco, 61870-036) and supplemented with 10% FBS, 10 mM HEPES, and 1 mM sodium pyruvate and incubated at 37 °C in 5% CO2 environment. To induce differentiation into macrophages, THP-1 cells were treated with PMA (100 ng/mL) for 48 h. To test the efficacy of Nox2 inhibitors, treatment was performed with or without the inhibitor, along with PMA [35].
(§2) Plate reader-based analyses of the production of O2^•− and H2O2 by PMA-activated dHL60 cells were performed according to a published protocol with minor modifications. Briefly, for the treatment of dHL60 cells with different concentrations of the compounds, 0.5 mL deep-well 96-well plates were used to dispense and store aliquots of their 10 mM DMSO solutions. Using a Multidrop™ PicoIT dispenser (Thermo Scientific), different volumes of the solutions of candidate Nox inhibitors (10 or 50 mM in DMSO) were injected into the bottom of 0.5 mL V-bottom 96-well plates; then, they were sealed with aluminum foil (VWR, Batavia, IL, USA) using a semiautomatic thermal sealer (BT LabSystems, St. Louis, MO, USA) and stored at −20 °C to reduce freeze-thawing the solutions. The plates with inhibitors were allowed to come to room temperature before the addition of the cell suspensions. dHL60 cells were pelleted and resuspended in HBSS (Invitrogen, Waltham, MA, USA) supplemented with 25 mM HEPES (pH 7.4) and 100 µM DTPA to a cell density of 2 × 10^5 cells/mL. dHL60 cells were added to the V-bottom plates at a volume of 210 µL/well. Next, cells were incubated with inhibitors for 30 min at 37 °C in a CO2-free incubator under ambient oxygen and then transferred to black, clear-bottom 96-well plates (200 µL/well) after incubation. Freshly prepared PMA plus probe solutions in HBSS (5× concentrated, 50 µL/well) included PMA (5 µM) with CBA (500 µM) or with Amplex Red (250 µM) plus HRP (0.5 U/mL) for H2O2 detection, or with HE (50 µM) plus DNA (0.5 mg/mL) for O2^•− detection. Once probes + PMA were added, plates were sealed with sealing film and immediately placed in the pre-warmed plate readers (37 °C). Fluorescence intensities were monitored kinetically from the bottom of the plates every 1.3 min for a period of 2 h using Beckman Coulter (Brea, CA, USA) DTX880 and BMG Labtech (Ortenberg, Germany) FLUOstar Omega plate readers. DMSO alone and DPI (10 µM) were used as negative and positive controls, respectively. […] The IC50 values were determined using at least five independent measurements, each consisting of technical quadruplicates per concentration.

A further data set concerns dHL60 cells. Kind of data set: Cell Titer Glo 2.0 cytotoxicity (ATP) assay in PMA-stimulated dHL60 cells. The format is cell-based, human. The conditions noted are these: for IC50: Homo sapiens, Cell Titer Glo 2.0, PMA-stimulated dHL60 cells, 2.5 h with inhibitor, unit not printed in Table 3, taken from text, read-out: IC50, Viability Assay. How it is done: The cytotoxicity of the inhibitors was tested by measuring the amount of ATP in the wells containing PMA-stimulated dHL60 cells and the candidate inhibitors. Cells were prepared as described for the plate reader-based measurements for H2O2, except that the cells were maintained with the inhibitors in a CO2-free incubator at 37 °C for 2.5 h to mirror the conditions during the fluorescence-based monitoring of H2O2 described above. After incubation, cells (100 µL/well) were transferred to white 96-well plates (Greiner, Kremsmünster, Austria), and the total cellular ATP amount was determined using the Cell Titer Glo 2.0 (Promega) cytotoxicity assay (100 µL/well) by measuring the luminescence intensity using a Beckman Coulter DTX880 plate reader.

Data set [2] concerns the target T1, Nox2. The data set is described as follows: Amplex Red/HRP assay of H2O2 production by PMA-activated dHL60 cells. The class given is cell-based. The note with it: for IC50: PMA (1 µM)-activated dHL60 cells, 30 min preincubation, read-out: IC50, inhibition of H2O2 production, Amplex Red Assay. The method, then: as §1, §2
Data set [3] can be described thus: In vivo pharmacokinetics / brain penetration, species not specified (rodent models). The note with it: brain; species and dose not stated; data not shown; read-out: brain-to-plasma ratio. The source says:
Rapid metabolism and the inability to cross the BBB represent major obstacles in the application of bioactive agents in neurodegenerative diseases. Based on the premise that Nox2 plays a major role in oxidative damage and exacerbates neurodegenerative diseases, we envision applications of brain-permeable Nox2 inhibitors in mechanistic studies in vivo, and, long-term, in the development of novel therapeutic strategies. Therefore, we performed in vivo pharmacokinetics studies to determine the time profile of plasma concentration and accumulation of TG15-132 in the brain tissue of Sprague Dawley rats and C57BL6 mice.

A further data set concerns THP-1 cells. The data set is described as follows: qRT-PCR mRNA expression of Nox2 subunits and inflammatory mediators in PMA-treated THP-1 cells. The note with it: 3 µM, 48 h with PMA 100 ng/mL. The format is cell-based, human. The method, then: as §1
mRNA expression analysis was performed as previously described. Briefly, THP-1 cells were treated with PMA (100 ng/mL) with or without the Nox2 inhibitor TG15-132 (3.0 µM) for 48 h. RNA extraction was done using the Quick-RNA miniprep kit (cat. no. R1055, Zymo Research, Irvine, CA, USA) and followed by cDNA synthesis using the qScript cDNA superMix kit (cat. no. 84035, Quantabio, Beverly, MA, USA). Quantitative real-time PCR was performed using specific primers designed to amplify target genes (Table 2). Data obtained were analyzed and converted into fold changes in expression with respect to vehicle-treated cells.
Background: Real-time PCR tracks product formation cycle by cycle.

The subject of data set [4] is Nox2. Also on record: method as in PMID 22726689. The conditions noted are these: library of >200,000 compounds; cited from earlier work.
Data set [5] in a line: Short-term (seven day) in vivo toxicity in mice. Also on record: species or system C57BL/6 mice. The note with it: 20 mg/kg, seven days, Figure 9B. How it is done: All animal experiments were performed according to protocols and guidelines approved by the Emory University Animal Care and Use Committee. The in vivo toxicity of TG15-132 was assessed using C57BL/6 mice (cat. no. 027, Charles River Laboratories, Wilmington, MA, USA). Animals were injected daily (i.p.) with saline, vehicle (DMSO 10%, PEG400 30%, water 60%), or 20 mg/kg of TG15-132 in vehicle for seven days, with body weight recorded each day. At the end of treatment, organs were harvested to study organ weight loss, and blood was collected from each mouse via cardiac puncture, and serum was isolated. Serum was analyzed for kidney function using blood urea nitrogen and creatinine, liver function using alanine amino transferase, and tissue damage using lactate dehydrogenase.

With `c1ccc2c(c1)[I+]c1ccccc1-2` [DPI, Diphenyleneiodonium chloride, reference compound], the “inhibitory activity (positive control)” value at Nox2 [1] (10 µM) is listed as “consistently showed inhibitory activity”. The cytotoxic effects result in the data set on dHL60 cells (10 µM, Cell Titer Glo 2.0) is “did not show any cytotoxic effects”.
As a reminder, the IC50 is the concentration at which inhibition is half-maximal. Regarding `CC(C)N1CCN(CCCn2c(SCCc3c[nH]c4ccccc34)nc3ccc(F)cc3c2=O)CC1` [TG17-57], the IC50 on Nox2 [1] is 7 ± 2.8 µM; on Nox2 [2] it was 9.2 ± 0.4 µM; in the data set with dHL60 cells, 20.7 ± 5 µM.
Turning to `CN(C)CCCn1c(SCCc2c[nH]c3ccccc23)nc2ccc(Cl)cc2c1=O` [TG15-139], the IC50 at Nox2 [1] was 3.1 ± 1.4 µM; on Nox2 [2] it was 4.9 ± 2.3 µM; with dHL60 cells, 14.1 ± 1.7 µM. Also, in the data set with dHL60 cells (dHL60 cells, Figure 3D,E), the “cell viability at concentrations showing Nox2 inhibitory potency” value was “no decrease in cell viability”. Moreover, in data set [3], the Kp was > 23.
As to `COc1cc(C(C)=O)cc(-c2cc(C(C)=O)cc(OC)c2O)c1O` [diapocynin, reference compound], the Nox2 inhibitory activity result at Nox2 [1] was “did not show Nox2 inhibitory activity”.
On to `CCN1CCN(CCCn2c(SCCc3c[nH]c4ccccc34)nc3ccc(F)cc3c2=O)CC1` [TG17-56], for which the half-maximal inhibitory concentration (IC50) amounted to 5.3 ± 0.6 µM on Nox2 [1], 7.8 ± 4 µM on Nox2 [2] and 16.7 ± 2.5 µM in the data set with dHL60 cells.
In the case of `CC(C)n1cc(-c2ccc3c(c2)N(C)CC3)c2c(NS(=O)(=O)c3ccn(C)n3)ccnc21` [GSK 2795039, reference compound], in the data set with THP-1 cells, the “expression of TNF compared with PMA-treated cells (Figure 7B)” value is given as “increased”; the “mRNA expression vs PMA-treated cells, additional experiment (Figure 7B)” value was “did not reduce the expression of Nox2 components and inflammatory mediators”.
Regarding `CC(C)N1CCN(C(=O)CCCn2c(SCCc3c[nH]c4ccccc34)nc3ccc(F)cc3c2=O)CC1` [TG15-293], the 50% inhibitory concentration (IC50) amounted to 23.6 ± 18.1 µM on Nox2 [1], 67.8 ± 2.6 µM on Nox2 [2] and 38.3 ± 7.5 µM in the data set with dHL60 cells. Further, at Nox2 [1] (relative to TG17-57), the “fold less potency than TG17-57 in the CBA assay” value is “about 3 fold”. In addition, the “fold less potency than TG17-57 in the Amplex Red assay” value at Nox2 [2] (relative to TG17-57) is given as “about 7 fold”.
On to `CN(C)CCCn1c(SCCc2ccccn2)nc2ccc(Cl)cc2c1=O` [TG15-124], for which the “Nox2 inhibitory potency (SAR statement)” value at Nox2 [1] is listed as “significant loss in Nox2 inhibitory potency”.
On the same count and under the same terms, for `CN(C)CCCSc1nc2ccc(F)cc2c(=O)n1CCCN(C)C` [TG17-55] the value was “eliminated potency”.
`O=c1c2ccccc2[se]n1-c1ccccc1` [ebselen]: the “Nox2 inhibition in cell-free HTS” value with Nox2 [4] is listed as “modest Nox2 inhibitors”.
Turning to `CN(C)CCCn1c(SCCc2ccccn2)nc2ccc(F)cc2c1=O` [TG15-131], the “Nox2 inhibitory potency (SAR statement)” value at Nox2 [1] was “significant loss in Nox2 inhibitory potency”.
Consider `CN(C)CCCn1c(SCCc2c[nH]c3ccccc23)nc2ccc(F)cc2c1=O` [TG15-132•HCl], for which, in data set [5], the “liver or kidney function, tissue damage (serum BUN, CREAT, ALT, LDH)” value was “did not lead to a negative effect”.
Regarding `COc1cc(C(C)=O)ccc1O` [apocynin, reference compound], at Nox2 [1], the Nox2 inhibitory activity entry was “did not show Nox2 inhibitory activity”.

These data come from article PMC10525516, “Novel NADPH Oxidase-2 Inhibitors as Potential Anti-Inflammatory and Neuroprotective Agents” (Antioxidants, 2023).
